These compounds were tested against GLP-1R (Homo sapiens, UniProt P43220) (assay: GLP-1R agonistic activity by One-Lite luciferase assay in HEK293-GLP-1R-luc cells (Example 59)). Settings: 6 h incubation, read-out: cAMP EC50.
Format: cell-based
Procedure: The agonistic activities of the compounds of the present disclosure on GLP-1R were evaluated by detecting the generation of cAMP.
• (1) Cell line: HEK293-GLP-1R-luc Stable Cell Line (Cobioer, CBP71117); • (2) Culture medium: DMEM+10% FBS (Gibco); • (3) Kit: One-Lite™ kit Luciferase Assay System (Vazyme). 2. Experimental Procedures • (1) HEK293-GLP1R cells were inoculated in a 96-well plate at a density of 30000 cells per well; • (2) 10× working solution of each compound was formulated; • (3) 10 μL of 10× working solution of each compound was added to corresponding well and incubated at 37° C. for 6 h; • (4) 100 μL of One-Lite Luciferase Assay Substrate formulated using One-Lite Luciferase Assay Buffer was added to each well; • (5) The plate was incubated at room temperature for 3 min; • (6) The plate was read by a multimode microplate reader to detect chemiluminescence. 3. Data Analysis • (1) % Activity was calculated by the following formula: % Activity=100−(Signalcmpd−SignalAve-PC)/(SignalAve-VC−SignalAve-PC)×100 • (2) The dose-response curve was plotted to calculate EC50: Y=Bottom+(Top−Bottom)/(1+10^(Log EC50−X)*HillSlope)) • X: log of agonist concentration; Y: Activity. 4. Experimental Results

GLP-1R, sequence (P43220 24-463): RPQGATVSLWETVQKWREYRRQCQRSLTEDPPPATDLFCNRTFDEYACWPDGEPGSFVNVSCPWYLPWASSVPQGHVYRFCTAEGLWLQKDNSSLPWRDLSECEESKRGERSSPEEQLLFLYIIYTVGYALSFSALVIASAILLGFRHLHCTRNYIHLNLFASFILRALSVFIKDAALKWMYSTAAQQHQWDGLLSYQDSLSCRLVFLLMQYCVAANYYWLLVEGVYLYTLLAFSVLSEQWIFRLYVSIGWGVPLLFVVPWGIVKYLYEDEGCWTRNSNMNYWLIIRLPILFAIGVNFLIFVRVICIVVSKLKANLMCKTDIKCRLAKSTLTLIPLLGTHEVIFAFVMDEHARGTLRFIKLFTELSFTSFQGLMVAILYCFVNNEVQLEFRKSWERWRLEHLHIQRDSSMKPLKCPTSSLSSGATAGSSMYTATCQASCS

Row | SMILES | EC50 [nM]
1 | Cc1cc(-n2nc3c(c2-n2ccn(-c4ccc5c(cnn5C)c4F)c2=O)[C@H](C)N(C(=O)c2cc4cc([C@H]5CCOC(C)(C)C5)ccc4n2[C@@]2(c4noc(=O)[nH]4)C[C@@H]2C)CC32CCC(F)(F)CC2)cc(C)c1F [Compound 200] | 20 to 100
2 | Cc1cc(-n2nc3c(c2-n2ccn(-c4ccc5c(cnn5C)c4F)c2=O)[C@H](C)N(C(=O)c2cc4cc([C@H]5CCOC(C)(C)C5)ccc4n2[C@@]2(c4noc(=O)[nH]4)C[C@@H]2C)CC32CCCCC2)cc(C)c1F [Compound 37] | 20 to 100
3 | C[C@H]1c2c(nn(-c3ccc(F)c(C4CC4)c3)c2-n2ccn(-c3ccc4c(cnn4C)c3F)c2=O)C2(CC2)CN1C(=O)c1cc2cc([C@H]3CCOC(C)(C)C3)ccc2n1[C@@]1(c2noc(=O)[nH]2)C[C@@H]1C [Compound 171] | ≤ 20
4 | Cc1cc(-n2nc3c(c2-n2ccn(-c4ccc5c(cnn5C)c4F)c2=O)[C@H](C)N(C(=O)c2cc4cc(C5CCOC(C)(C)C5)ccn4c2C2(c4noc(=O)[nH]4)CC2)CC32CC2)cc(C)c1F (single isomer, unassigned) [Compound 185-B] | 20 to 100
5 | Cc1cc(-n2nc3c(c2-n2ccn(-c4ccc5c(cnn5C)c4F)c2=O)[C@H](C)N(C(=O)c2cc4cc([C@H]5CCOC(C)(C)C5)ccc4n2[C@@]2(c4noc(=O)[nH]4)C[C@@H]2C)CC32CCN(C(N)=O)CC2)cc(C)c1F [Compound 162] | ≤ 20
6 | Cc1cc(-n2nc3c(c2-n2ccn(-c4ccc5c(cnn5C)c4F)c2=O)[C@H](C)N(C(=O)c2cc4cc([C@H]5CCOC(C)(C)C5)ccc4n2[C@@]2(c4noc(=O)[nH]4)C[C@@H]2C)CC32CN(C=O)C2)cc(C)c1F [Compound 165] | ≤ 20
7 | Cc1cc(-n2nc3c(c2-n2ccn(-c4ccc5nn(CC(F)(F)F)cc5c4F)c2=O)[C@H](C)N(C(=O)c2cc4cc([C@H]5CCOC(C)(C)C5)ccc4n2[C@@]2(c4noc(=O)[nH]4)C[C@@H]2C)CC32CC2)cc(C)c1F [Compound 224] | 20 to 100
8 | CCn1ncc2c(F)c(-n3ccn(-c4c5c(nn4-c4cc(C)c(F)c(C)c4)C4(CC4)CN(C(=O)c4cc6cc([C@H]7CCOC(C)(C)C7)ccc6n4[C@@]4(c6noc(=O)[nH]6)C[C@@H]4C)[C@H]5C)c3=O)ccc21 [Compound 222] | ≤ 20
9 | Cc1cc(-n2nc3c(c2-n2ccn(-c4ccc5c(cnn5C5CC5)c4F)c2=O)[C@H](C)N(C(=O)c2cc4cc([C@H]5CCOC(C)(C)C5)ccc4n2[C@@]2(c4noc(=O)[nH]4)C[C@@H]2C)CC32CC2)cc(C)c1F [Compound 221] | ≤ 20
10 | Cc1cc(-n2nc3c(c2-n2ccn(-c4ccc5c(cnn5C)c4F)c2=O)[C@H](C)N(C(=O)c2cc4cc([C@H]5CCOC(C)(C)C5)ccc4n2[C@@]2(c4noc(=O)[nH]4)C[C@@H]2C)CC32CC(OC(C)C)C2)cc(C)c1F (stereo partly shown) [Compound 192] | ≤ 20
11 | Cc1cc(-n2nc3c(c2-n2ccn(-c4ccc5c(cnn5C)c4F)c2=O)[C@H](C)N(C(=O)c2cc4cc(N5CCOC(C)(C)C5)ccc4n2C2(c4noc(=O)[nH]4)CC2)CC32CC2)cc(C)c1F [Compound 177] | ≤ 20
12 | Cc1cc(-n2nc3c(c2-n2ccn(-c4ccc5c(cnn5C)c4F)c2=O)[C@H](C)N(C(=O)c2cc4cc([C@H]5CCOC(C)(C)C5)ccc4n2[C@@]2(c4noc(=O)[nH]4)C[C@@H]2C)CC32CCC2)cc(C)c1F [Compound 23] | ≤ 20
13 | Cc1cc(-n2nc3c(c2-n2ccn(-c4ccc5c(cnn5C)c4F)c2=O)[C@H](C)N(C(=O)c2cc4cc([C@H]5CCOC(C)(C)C5)ccc4n2[C@@]2(c4noc(=O)[nH]4)C[C@@H]2C)CC32CCC(F)CC2)cc(C)c1F (stereo partly shown) [Compound 201] | 20 to 100
14 | CNC(=O)N1CCC2(CC1)CN(C(=O)c1cc3cc([C@H]4CCOC(C)(C)C4)ccc3n1[C@@]1(c3noc(=O)[nH]3)C[C@@H]1C)[C@@H](C)c1c2nn(-c2cc(C)c(F)c(C)c2)c1-n1ccn(-c2ccc3c(cnn3C)c2F)c1=O [Compound 163] | ≤ 20
15 | Cc1cc(-n2nc3c(c2-n2ccn(-c4ccc5c(cnn5C)c4F)c2=O)[C@H](C)N(C(=O)c2cc4cc([C@H]5CCOC(C)(C)C5)ccc4n2[C@@]2(c4noc(=O)[nH]4)C[C@@H]2C)CC32CCC(F)(F)C2)cc(C)c1F (stereo partly shown) [Compound 212] | ≤ 20
16 | Cc1cc(-n2nc3c(c2-n2ccn(-c4ccc5c(cnn5C)c4F)c2=O)[C@H](C)N(C(=O)c2cc4cc([C@H]5CCOC(C)(C)C5)ccc4n2[C@@]2(c4noc(=O)[nH]4)C[C@@H]2C)CC32CC(C)(O)C2)cc(C)c1F (stereo partly shown) [Compound 179] | ≤ 20
17 | Cc1cc(-n2nc3c(c2-n2ccn(-c4ccc5c(cnn5C)c4F)c2=O)[C@H](C)N(C(=O)c2cc4cc([C@H]5CCOC(C)(C)C5)ccc4n2[C@@]2(c4noc(=O)[nH]4)C[C@@H]2C)CC32CCC(=O)CC2)cc(C)c1F [Compound 198] | ≤ 20
18 | Cc1cc(-n2nc3c(c2-n2ccn(-c4ccc5c(cnn5C)c4F)c2=O)[C@H](C)N(C(=O)c2cc4cc([C@H]5CCOC(C)(C)C5)ccc4n2[C@@]2(c4noc(=O)[nH]4)C[C@@H]2C)CC32CCC(O)C2)cc(C)c1F (stereo partly shown) [Compound 209] | ≤ 20
19 | C[C@H]1c2c(nn(-c3ccc(F)c(C4CC4)c3)c2-n2ccn(-c3ccc4c(cnn4C)c3F)c2=O)C2(CC2)CN1C(=O)c1cc2cc([C@H]3CCOC(C)(C)C3)ccc2n1C1(c2noc(=O)[nH]2)CC1 [Compound 170] | ≤ 20
20 | Cc1cc(-n2nc3c(c2-n2ccn(-c4ccc5c(cnn5C)c4F)c2=O)[C@H](C)N(C(=O)c2cc4cc([C@H]5CCOC(C)(C)C5)ccc4n2[C@@]2(c4noc(=O)[nH]4)C[C@@H]2C)CC32CCC(=O)C2)cc(C)c1F (stereo partly shown) [Compound 208] | ≤ 20

The next lines start with the values.

Row | EC50 [nM] | SMILES
21 | ≤ 20 | Cc1cc(-n2nc3c(c2-n2ccn(-c4ccc5c(cnn5C)c4F)c2=O)[C@H](C)N(C(=O)c2cc4cc([C@H]5CCOC(C)(C)C5)ccc4n2[C@@]2(c4noc(=O)[nH]4)C[C@@H]2C)CC32CCN(C(=O)C3CC3)CC2)cc(C)c1F [Compound 157]
22 | ≤ 20 | Cc1cc(-n2nc3c(c2-n2ccn(-c4ccc5c(cnn5C)c4F)c2=O)[C@H](C)N(C(=O)c2cc4cc([C@H]5CCOC(C)(C)C5)ccc4n2[C@@]2(c4noc(=O)[nH]4)C[C@@H]2C)CC32C[S+]([O-])C2)cc(C)c1F (stereo partly shown) [Compound 190]
23 | ≤ 20 | Cc1cc(-n2nc3c(c2-n2ccn(-c4ccc5c(cnn5C)c4F)c2=O)[C@H](C)N(C(=O)c2cc4cc([C@H]5CCOC(C)(C)C5)ccc4n2[C@@]2(c4noc(=O)[nH]4)C[C@@H]2C)CC32CCC(O)CC2)cc(C)c1F (stereo partly shown) [Compound 199]
24 | ≤ 20 | Cc1cc(-n2nc3c(c2-n2ccn(-c4ccc5c(cnn5C)c4F)c2=O)[C@H](C)N(C(=O)c2cc4cc([C@H]5CCOC(C)(C)C5)ccc4n2[C@@]2(c4noc(=O)[nH]4)C[C@@H]2C)CC32C=CCC2)cc(C)c1F (stereo partly shown) [Compound 197]
25 | ≤ 20 | Cc1cc(-n2nc3c(c2-n2ccn(-c4ccc5c(cnn5C)c4F)c2=O)[C@H](C)N(C(=O)c2cc4cc([C@H]5CCOC(C)(C)C5)ccc4n2[C@@]2(c4noc(=O)[nH]4)C[C@@H]2C)CC32CC2(F)F)cc(C)c1F (stereo partly shown) [Compound 225]
26 | ≤ 20 | Cc1cc(-n2nc3c(c2-n2ccn(-c4ccc5c(cnn5C)c4F)c2=O)[C@H](C)N(C(=O)c2cc4cc([C@H]5CCOC(C)(C)C5)ccc4n2[C@@]2(c4noc(=O)[nH]4)C[C@@H]2C)CC32CCOC2)cc(C)c1F (stereo partly shown) [Compound 29]
27 | ≤ 20 | Cc1cc(-n2nc3c(c2-n2ccn(-c4ccc5c(cnn5C)c4F)c2=O)[C@H](C)N(C(=O)c2cc4cc([C@H]5CCOC(C)(C)C5)ccc4n2[C@@]2(c4noc(=O)[nH]4)C[C@@H]2C)CC32CCN(C(=O)[C@H](C)N)CC2)cc(C)c1F [Compound 160]
28 | ≤ 20 | Cc1cc(-n2nc3c(c2-n2ccn(-c4ccc5c(cnn5C)c4F)c2=O)[C@H](C)N(C(=O)c2cc4cc([C@H]5CCOC(C)(C)C5)ccc4n2[C@@]2(c4noc(=O)[nH]4)C[C@@H]2C)CC32CCN(S(C)(=O)=O)CC2)cc(C)c1F [Compound 156]
29 | ≤ 20 | Cc1cc(-n2nc3c(c2-n2ccn(-c4ccc5c(cnn5C)c4F)c2=O)[C@H](C)N(C(=O)c2cc4cc([C@H]5CCOC(C)(C)C5)ccc4n2[C@@]2(c4noc(=O)[nH]4)C[C@@H]2C)CC32CN(C)C2)cc(C)c1F [Compound 164]
30 | ≤ 20 | Cc1cc(-n2nc3c(c2-n2ccn(-c4ccc5c(cnn5C)c4F)c2=O)[C@H](C)N(C(=O)c2cn4cc(C5CCOC(C)(C)C5)ccc4c2C2(c4noc(=O)[nH]4)CC2)CC32CC2)cc(C)c1F (stereo partly shown) [Compound 196]
31 | ≤ 20 | Cc1cc(-n2nc3c(c2-n2ccn(-c4ccc5c(cnn5C)c4F)c2=O)[C@H](C)N(C(=O)c2cc4cc([C@H]5CCOC(C)(C)C5)ccc4n2[C@@]2(c4noc(=O)[nH]4)C[C@@H]2C)CC32CCN(C(=O)C(F)(F)F)CC2)cc(C)c1F [Compound 155]
32 | ≤ 20 | Cc1cc(-n2nc3c(c2-n2ccn(-c4ccc5c(cnn5C)c4F)c2=O)[C@H](C)N(C(=O)c2cc4cc([C@H]5CCOC(C)(C)C5)ccc4n2[C@@]2(c4noc(=O)[nH]4)C[C@@H]2C)CC32CCNC2)cc(C)c1F (stereo partly shown) [Compound 195]
33 | ≤ 20 | Cc1cc(-n2nc3c(c2-n2ccn(-c4ccc5c(cnn5CC(F)(F)F)c4F)c2=O)[C@H](C)N(C(=O)c2cc4cc([C@H]5CCOC(C)(C)C5)ccc4n2[C@@]2(c4noc(=O)[nH]4)C[C@@H]2C)CC32CC2)cc(C)c1F [Compound 223]
34 | ≤ 20 | Cc1cc(-n2nc3c(c2-n2ccn(-c4ccc5c(cnn5C)c4F)c2=O)[C@H](C)N(C(=O)c2cc4cc([C@H]5CCOC(C)(C)C5)ccc4n2[C@@]2(c4noc(=O)[nH]4)C[C@@H]2C)CC32CNC2)cc(C)c1F [Compound 15]

Reference: patent US12419874B2, “GLP-1R agonist compound and use thereof” (Chongqing Pharmaceutical Research Institute Co., Ltd., priority 2024, dated 2025)
